Experiment [1] concerns the target T1, EFHA1 (which binds to Tyk2(C) itself) (Homo sapiens, UniProt Q8IYU8).
T1 construct: expressed in transfected cells; host or cells: HEK293-T
T1 sequence (Q8IYU8 1-434): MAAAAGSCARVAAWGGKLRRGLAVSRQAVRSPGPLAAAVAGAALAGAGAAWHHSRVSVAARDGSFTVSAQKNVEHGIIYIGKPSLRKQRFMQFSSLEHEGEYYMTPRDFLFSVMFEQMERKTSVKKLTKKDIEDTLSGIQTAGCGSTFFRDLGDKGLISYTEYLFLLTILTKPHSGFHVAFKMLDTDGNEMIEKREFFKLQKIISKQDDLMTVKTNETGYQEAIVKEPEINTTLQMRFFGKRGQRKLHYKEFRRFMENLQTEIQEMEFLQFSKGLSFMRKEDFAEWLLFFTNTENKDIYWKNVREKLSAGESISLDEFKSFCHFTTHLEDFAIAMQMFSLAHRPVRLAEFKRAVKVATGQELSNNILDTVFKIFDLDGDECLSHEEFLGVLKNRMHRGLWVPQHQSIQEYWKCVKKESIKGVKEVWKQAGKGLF
The experiment in a line: Tyk2(C) kinase substrate sensor luciferase reporter assay, EFHA1 control interaction. The experiment is classed as cell-based. As to conditions: HEK293-T cells, pMet7-HA-Tyk2(C)-p53(N)+pMG1-EFHA1; 0-3333 nM; FIG. 4.

For experiment [2], the system named is Tyk2(R1027A). The experiment can be described thus: Imidazole-inducible version of the assay, Tyk2(R1027A)-RTp66 fusion, luciferase reporter. The experiment is classed as cell-based, human. The following applies: HEK293-T cells, 0.5-50 mM imidazole. As to the method:
(§1) Transfections were carried out using a standard calcium phosphate method. HEK293-T cells were seeded in black tissue-culture treated 96-well plates at 10,000 cells/well in 100 μl culture medium (DMEM supplemented with 10% FCS). Twenty-four hours later, plasmid DNA mixes were prepared that contained plasmids encoding fusion proteins with the first and second interacting proteins and reporter plasmids. The DNA was supplemented with 10 μl 2.5M CaCl2) and double distilled water to a final volume of 100 μl. This mixture was added dropwise to 100 μl 2×HeBS buffer (280 mM NaCl, 1.5 mM Na2HPO4, 50 mM Hepes; pH 7.05) while vigorously vortexing. After incubation at room temperature for 15 minutes to allow DNA precipitates to form, the solution was added to the cells at […] Cells were incubated at 37° C., 8% CO2. Forty-eight hours after transfection, luciferase activity was measured using the Luciferase Assay System kit (Promega) on a TopCount luminometer (Perkin-Elmer). Each transfection was done in triplicate and the average of the luciferase activity readings was used in the calculations.
(§2) A Nutlin-3 (Sigma) stock solution of 20 mM in DMSO was diluted in culture medium and added to the cells 24 hours after transfection. Imidazole (Sigma) diluted in culture medium was added to the cells 24 hours after transfection. […]
A general note: In a reporter assay the amount or activity of a reporter protein is the signal.

The test system of experiment [3] is Tyk2(C). The experiment can be described thus: Imidazole treatment of the constitutive Tyk2(C)-RTp66 fusion assay, luciferase reporter. The experiment is classed as cell-based, human. The following applies: HEK293-T cells, pMet7-HA-Tyk2(C)-RTp66; 0.5-50 mM imidazole. The method, then:
as §1, §2

Regarding `COc1ccc(C2=N[C@@H](c3ccc(Cl)cc3)[C@@H](c3ccc(Cl)cc3)N2C(=O)N2CCNC(=O)C2)c(OC(C)C)c1` [Nutlin-3], the “signal corresponding to the interaction with EFHA1” value in experiment [1] was “unaffected”.
Regarding `c1c[nH]cn1` [imidazole], the “background signal, Tyk2 fusion construct with unfused gp130 fragment (pMG1)” value in experiment [2] (Tyk2 fusion construct + pMG1) was “unaffected”. Moreover, the “maximal imidazole-dependent induction of the signal (interaction between HIV RTp66 and RTp51) compared to untreated cells” value in experiment [2] (pMet7-HA-Tyk2(R1027A)-RTp66+pMG2-RTp51, added 24 hours after transfection) came out at 36 fold. The “imidazole regulation of the signal in cells transfected with the Tyk2(C) fusion” value in experiment [3] is “did not exhibit any imidazole regulation”.
